We go through 39 compounds from patent publication US20250059220A1, “SUBSTITUTED BENZOTHIOPHENE DERIVATIVES AND METHODS OF USE THEREOF” (Merck Sharp & Dohme LLC, priority 2021, published 2025).

One assay deals with human PTPN2 (1-387) (Homo sapiens (Human), UniProt P17706). Nature of the assay: Human PTPN2 Biochemical Assay. The settings on record: DiFMUP substrate. On the procedure: Human PTPN2 Biochemical Assay
Test compounds were dissolved in DMSO, and 10-point serial 3-fold dilution series in DMSO were prepared in Echo Qualified 384-well Polypropylene Microplates (Labcyte, San Jose, CA) (top concentration 50 µM). Assay plates (384-well low volume black plates; Corning #3820, Corning, NY) were prepared by dispensing 50 nL of test compound, and DMSO (for high and low controls) by ECHO acoustic dispenser (Labcyte, San Jose CA). This was followed by addition of 5 μL of 0.2 nM human PTPN2 (1-387) solution (prepared in the assay buffer, 50 mM Tris pH 7.4, 150 mM NaCl, 0.01% Tween20, 0.5 mM dithiothreitol) to all wells except the low control. 5 μl of assay buffer was added into the low control, then the plate was incubated for 30 minutes at room temperature. Subsequently, 5 μl of 100 µM DiFMUP (6,8-difluoro-4-methylumbelliferyl phosphate) solution (prepared in assay buffer from 10 mM stock in DMSO) was added to the assay plate and incubated for 1 hour at room temperature. For detection, assay plates were read on SpectraMax Microplate Reader (Molecular Devices), with Excitation wavelength=360 nm and Emission wavelength=460 nm. Test compound effects were normalized to the window defined by the controls, DMSO/buffer, and DMSO/50 pM human PTPN2. Calculated % effects were fit using a 4-parameter algorithm, and EC50 was reported.

In a further assay the target is human PTPN1 (1-435) (Homo sapiens (Human), UniProt P18031). Nature of the assay: Human PTPN1 Biochemical Assay. The settings on record: DiFMUP substrate, read-out: PTP1B IC50. On the procedure: Human PTPN1 Biochemical Assay
Test compounds were dissolved in DMSO, and 10-point serial 3-fold dilution series in DMSO were prepared in Echo Qualified 384-well Polypropylene Microplates (Labcyte, San Jose, CA) (top concentration 50 µM). […] 5 μl of assay buffer was added into the low control. The plate was incubated for 30 minutes at room temperature. Subsequently, 5 μl of 100 µM DiFMUP (6,8-difluoro-4-methylumbelliferyl phosphate) solution (prepared in assay buffer from 10 mM stock in DMSO) was added to the assay plate and incubated for 1 hour at room temperature. For detection, assay plates were read on SpectraMax Microplate Reader (Molecular Devices), with Excitation wavelength=360 nm and Emission wavelength=460 nm. […] Calculated % effects were fit using a 4-parameter algorithm, and EC50 was reported.

Sequence of human PTPN1 (1-435) (P18031 whole entry): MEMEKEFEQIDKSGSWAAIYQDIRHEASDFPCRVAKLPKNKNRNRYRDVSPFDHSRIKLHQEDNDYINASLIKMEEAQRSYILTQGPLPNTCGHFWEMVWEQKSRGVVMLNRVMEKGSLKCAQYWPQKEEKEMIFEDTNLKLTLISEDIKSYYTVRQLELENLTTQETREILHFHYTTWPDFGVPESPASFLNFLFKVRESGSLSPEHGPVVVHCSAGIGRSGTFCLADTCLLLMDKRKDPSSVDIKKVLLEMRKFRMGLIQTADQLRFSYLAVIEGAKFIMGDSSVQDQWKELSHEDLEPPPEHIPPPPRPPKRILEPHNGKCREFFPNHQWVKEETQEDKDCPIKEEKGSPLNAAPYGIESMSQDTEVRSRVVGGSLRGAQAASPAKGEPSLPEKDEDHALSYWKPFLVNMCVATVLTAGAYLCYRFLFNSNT
Sequence of human PTPN2 (1-387) (P17706 other isoform, or with tags, fused parts or gaps): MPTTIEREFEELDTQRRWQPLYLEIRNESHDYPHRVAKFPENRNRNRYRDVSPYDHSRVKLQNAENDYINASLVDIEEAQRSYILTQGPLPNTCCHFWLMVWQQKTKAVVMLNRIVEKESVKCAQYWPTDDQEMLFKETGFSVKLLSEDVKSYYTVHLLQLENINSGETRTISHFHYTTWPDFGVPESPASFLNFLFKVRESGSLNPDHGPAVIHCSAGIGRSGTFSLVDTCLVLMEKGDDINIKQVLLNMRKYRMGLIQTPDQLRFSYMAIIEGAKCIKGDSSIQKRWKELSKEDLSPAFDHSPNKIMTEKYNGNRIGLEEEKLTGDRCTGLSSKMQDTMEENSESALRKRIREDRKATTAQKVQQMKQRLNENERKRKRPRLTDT

What is called IC50 is the concentration at which inhibition is half-maximal. With `O=C(N[C@@H]1[C@@H]2COC[C@@H]21)c1ccc2sc(C(F)(F)P(=O)(O)O)c(Br)c2c1` [Compound 57], the results for the IC50 at human PTPN2 (1-387) and on human PTPN1 (1-435) were 5.09 µM and 4.33 µM, respectively.

On to `CN1CCCC(NC(=O)c2ccc3sc(C(F)(F)P(=O)(O)O)c(Br)c3c2)C1` (stereo not drawn) [Compound 58], for which the IC50 against human PTPN2 (1-387) was 7.9 µM; on human PTPN1 (1-435), 9.05 µM.

Regarding `O=C(NCCC1CC1)c1ccc2sc(C(F)(F)P(=O)(O)O)c(Br)c2c1` [Compound 59], the 50% inhibitory concentration (IC50) against human PTPN2 (1-387) amounted to 0.55 µM; at human PTPN1 (1-435), 1.39 µM.

`CC(C)OCCNC(=O)c1ccc2sc(C(F)(F)P(=O)(O)O)c(Br)c2c1` [Compound 60]: the IC50 against human PTPN2 (1-387) came to 2.53 µM; at human PTPN1 (1-435), 5.72 µM.

In the case of `O=C(Nc1cccc(-c2cnco2)c1)c1ccc2sc(C(F)(F)P(=O)(O)O)c(Br)c2c1` [Compound 61], the figures for the half-inhibitory concentration (IC50) at human PTPN2 (1-387) and at human PTPN1 (1-435) were 0.904 µM and 0.638 µM, respectively.

For `O=C(Nc1ccccc1-c1ccccc1)c1ccc2sc(C(F)(F)P(=O)(O)O)c(Br)c2c1` [Compound 62], the IC50 is 1.61 µM on human PTPN2 (1-387) and 2 µM on human PTPN1 (1-435).

Consider `CC1CCc2c(sc(NC(=O)c3ccc4sc(C(F)(F)P(=O)(O)O)c(Br)c4c3)c2C#N)C1` (stereo not drawn) [Compound 63], for which the results for the IC50 against human PTPN2 (1-387) and on human PTPN1 (1-435) were 0.542 µM and 0.444 µM, respectively.

For the compound `O=C(Nc1ccc(Cn2cccn2)cc1)c1ccc2sc(C(F)(F)P(=O)(O)O)c(Br)c2c1` [Compound 64], the concentration for half-maximal inhibition (IC50) against human PTPN2 (1-387) was 1.8 µM; on human PTPN1 (1-435), 1.44 µM.

Regarding `O=C(NC(c1ccccc1)c1cccnc1)c1ccc2sc(C(F)(F)P(=O)(O)O)c(Br)c2c1` (stereo not drawn) [Compound 65], the values for the half-inhibitory concentration (IC50) against human PTPN2 (1-387) and at human PTPN1 (1-435) were 4.85 µM and 4.3 µM, respectively.

For `N#Cc1cccc(-c2cccc(NC(=O)c3ccc4sc(C(F)(F)P(=O)(O)O)c(Br)c4c3)c2)c1` [Compound 66], the figures for the concentration for half-maximal inhibition (IC50) against human PTPN2 (1-387) and on human PTPN1 (1-435) were 0.719 µM and 0.516 µM, respectively.

Take `O=C(NC1CCN(Cc2ccccc2)C1)c1ccc2sc(C(F)(F)P(=O)(O)O)c(Br)c2c1` (stereo not drawn) [Compound 67]: the IC50 amounted to 4.89 µM against human PTPN2 (1-387) and 3.18 µM on human PTPN1 (1-435).

Take `O=C(NC1CCCN(Cc2ccccc2F)C1)c1ccc2sc(C(F)(F)P(=O)(O)O)c(Br)c2c1` (stereo not drawn) [Compound 68]: the results for the IC50 at human PTPN2 (1-387) and on human PTPN1 (1-435) were 4.24 µM and 3.77 µM, respectively.

As to `C[C@@H](Cc1cccc(C(F)(F)F)c1)NC(=O)c1ccc2sc(C(F)(F)P(=O)(O)O)c(Br)c2c1` [Compound 69], the IC50 against human PTPN2 (1-387) worked out at 4.16 µM; on human PTPN1 (1-435), 6.25 µM.

As to `CC(C)(NC(=O)c1ccc2sc(C(F)(F)P(=O)(O)O)c(Br)c2c1)c1ncn(-c2ccccc2)n1` [Compound 70], the IC50 on human PTPN2 (1-387) amounted to 8.75 µM; on human PTPN1 (1-435), 9.21 µM.

Turning to `CC(NC(=O)c1ccc2sc(C(F)(F)P(=O)(O)O)c(Br)c2c1)c1cccc2ccccc12` (stereo not drawn) [Compound 71], the IC50 at human PTPN2 (1-387) turned out to be 3.53 µM; at human PTPN1 (1-435) it was 3.65 µM.

Consider `O=C(NCCc1cnc2n(c1=O)CCCC2)c1ccc2sc(C(F)(F)P(=O)(O)O)c(Br)c2c1` [Compound 72], for which the figures for the half-inhibitory concentration (IC50) against human PTPN2 (1-387) and at human PTPN1 (1-435) were 3.52 µM and 2.75 µM, respectively.

Regarding `Cc1cc(NC(=O)c2ccc3sc(C(F)(F)P(=O)(O)O)c(Br)c3c2)n(Cc2ccccc2)n1` [Compound 73], the concentration for half-maximal inhibition (IC50) at human PTPN2 (1-387) came to 3.08 µM; at human PTPN1 (1-435), 2.56 µM.

Turning to `CC(=O)N1CCC(CNC(=O)c2ccc3sc(C(F)(F)P(=O)(O)O)c(Br)c3c2)(C(F)(F)F)C1` (stereo not drawn) [Compound 74], the half-inhibitory concentration (IC50) was found to be 7.44 µM against human PTPN2 (1-387) and 5.76 µM on human PTPN1 (1-435).

Consider `O=C(N[C@@H]1CCCC[C@H]1OCc1ccccc1)c1ccc2sc(C(F)(F)P(=O)(O)O)c(Br)c2c1` [Compound 75], for which the IC50 on human PTPN2 (1-387) was 2.7 µM; at human PTPN1 (1-435) it was 1.85 µM.

`O=C(NC1CCCN(c2ccccc2)C1)c1ccc2sc(C(F)(F)P(=O)(O)O)c(Br)c2c1` (stereo not drawn) [Compound 76]: the IC50 at human PTPN2 (1-387) came out at 0.958 µM; at human PTPN1 (1-435), 1.88 µM.

`CC(=O)N1CCc2ccc(NC(=O)c3ccc4sc(C(F)(F)P(=O)(O)O)c(Br)c4c3)cc21` [Compound 77]: the concentration for half-maximal inhibition (IC50) was 1.11 µM against human PTPN2 (1-387) and 0.73 µM at human PTPN1 (1-435).

`CN1C[C@H]2[C@H](CNC(=O)c3ccc4sc(C(F)(F)P(=O)(O)O)c(Br)c4c3)[C@H]2c2ccccc21` [Compound 78]: the IC50 against human PTPN2 (1-387) worked out at 1.03 µM; on human PTPN1 (1-435) it was 1.09 µM.

`O=C(N[C@H]1CC(=O)N(C2CC2)C1)c1ccc2sc(C(F)(F)P(=O)(O)O)c(Br)c2c1` [Compound 79]: the values for the IC50 against human PTPN2 (1-387) and at human PTPN1 (1-435) were 9.75 µM and 8.1 µM, respectively.

Turning to `CC(NC(=O)c1ccc2sc(C(F)(F)P(=O)(O)O)c(Br)c2c1)c1ccc2c(c1)OCCO2` (stereo not drawn) [Compound 80], the IC50 turned out to be 1.89 µM at human PTPN2 (1-387) and 2.13 µM at human PTPN1 (1-435).

With `CC(Cn1ccc2ccccc21)NC(=O)c1ccc2sc(C(F)(F)P(=O)(O)O)c(Br)c2c1` (stereo not drawn) [Compound 81], the IC50 at human PTPN2 (1-387) stood at 0.0273 µM; at human PTPN1 (1-435), 0.115 µM.

Turning to `O=C(NCCc1nc(-c2ccccc2)cs1)c1ccc2sc(C(F)(F)P(=O)(O)O)c(Br)c2c1` [Compound 82], the IC50 was found to be 1.88 µM against human PTPN2 (1-387) and 1.39 µM on human PTPN1 (1-435).

`N#Cc1ccc2c(c1)CC(NC(=O)c1ccc3sc(C(F)(F)P(=O)(O)O)c(Br)c3c1)C2` (stereo not drawn) [Compound 83]: the IC50 against human PTPN2 (1-387) was found to be 2.01 µM; on human PTPN1 (1-435) it was 1.63 µM.

On to `CCC(COCc1ccccc1)NC(=O)c1ccc2sc(C(F)(F)P(=O)(O)O)c(Br)c2c1` (stereo not drawn) [Compound 84], for which the concentration for half-maximal inhibition (IC50) was found to be 3.47 µM against human PTPN2 (1-387) and 7.43 µM on human PTPN1 (1-435).

For the compound `CCN1C(=O)CCC12C[C@H]2CCNC(=O)c1ccc2sc(C(F)(F)P(=O)(O)O)c(Br)c2c1` (stereo partly drawn) [Compound 85], the concentration for half-maximal inhibition (IC50) against human PTPN2 (1-387) was found to be 4.54 µM; on human PTPN1 (1-435), 4.67 µM.

On to `O=C(N[C@@H]1CCCC[C@H]1c1ccccc1)c1ccc2sc(C(F)(F)P(=O)(O)O)c(Br)c2c1` [Compound 86], for which the IC50 against human PTPN2 (1-387) was determined as 1.45 µM; at human PTPN1 (1-435) it was 3.78 µM.

For `COc1ccc(CCC(C)NC(=O)c2ccc3sc(C(F)(F)P(=O)(O)O)c(Br)c3c2)cc1` (stereo not drawn) [Compound 87], the IC50 against human PTPN2 (1-387) stood at 3.3 µM; on human PTPN1 (1-435), 7.09 µM.

As for `O=C(NC[C@]12C[C@@H]1CCN2Cc1ccccc1)c1ccc2sc(C(F)(F)P(=O)(O)O)c(Br)c2c1` [Compound 88], the values for the IC50 against human PTPN2 (1-387) and on human PTPN1 (1-435) were 1.51 µM and 1.09 µM, respectively.

`O=C(NCCn1nnc2ccccc21)c1ccc2sc(C(F)(F)P(=O)(O)O)c(Br)c2c1` [Compound 89]: the IC50 amounted to 6.04 µM on human PTPN2 (1-387) and 5.12 µM at human PTPN1 (1-435).

For `O=C(NCc1ccccc1N1CCOCC1)c1ccc2sc(C(F)(F)P(=O)(O)O)c(Br)c2c1` [Compound 90], the IC50 against human PTPN2 (1-387) was 5.8 µM; on human PTPN1 (1-435), 4.21 µM.

For the compound `O=C(NCc1nccc(-c2cccnc2)n1)c1ccc2sc(C(F)(F)P(=O)(O)O)c(Br)c2c1` [Compound 91], the concentration for half-maximal inhibition (IC50) was found to be 6.17 µM at human PTPN2 (1-387) and 4.98 µM at human PTPN1 (1-435).

Turning to `CC(C)(O)c1ccc(CNC(=O)c2ccc3sc(C(F)(F)P(=O)(O)O)c(Br)c3c2)cn1` [Compound 92], the half-maximal inhibitory concentration (IC50) worked out at 3.16 µM against human PTPN2 (1-387) and 1.94 µM on human PTPN1 (1-435).

For the compound `CC(C)C1CC(CNC(=O)c2ccc3sc(C(F)(F)P(=O)(O)O)c(Br)c3c2)C1` (stereo not drawn) [Compound 93], the IC50 came to 4.33 µM against human PTPN2 (1-387) and 4.13 µM on human PTPN1 (1-435).

On to `O=C(NCCc1c[nH]c2ccc(F)cc12)c1ccc2sc(C(F)(F)P(=O)(O)O)c(Br)c2c1` [Compound 94], for which the results for the IC50 against human PTPN2 (1-387) and on human PTPN1 (1-435) were 2.8 µM and 2.4 µM, respectively.

In the case of `COc1cccc(CNC(=O)c2ccc3sc(C(F)(F)P(=O)(O)O)c(Br)c3c2)c1OC(F)F` [Compound 95], the IC50 against human PTPN2 (1-387) amounted to 4.78 µM; at human PTPN1 (1-435), 3.9 µM.
